40 molecules from patent EP2818472A1, “Imidazo[4,5-c]pyridine and pyrrolo[3,2-c]pyridine compounds as G-protein-coupled receptor kinase 5 (GRK5) modulators” (Max-Planck-Gesellschaft zur Förderung der Wissenschaften …, priority 2013, dated 2014) can be followed below.

For the assay, the system named is beta-TC6 cells. The assay can be described thus: Insulin HTRF assay (relative activity Ar) in beta-TC6 cells. The format is cell-based, mouse. The settings on record: Mus musculus, Beta-TC6, 4 h, insulin HTRF, supernatant of beta-TC6 cells, incubation with test compound at 37°C for 2, 3, 4h; read-out: Ar (relative activity). The method, boiled down:
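beta-TC6 cells (15k/well, seeded 24 or 48 h) washed, then exposed to compound in induction buffer (0.5% DMSO final) for 2, 3 or 4 h at 37°C.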
Regarding `COc1cccc(Nc2cc3[nH]c(-c4ccc(C(=O)N(C)C)cc4)cc3cn2)c1` [Compound 19, 4-[6-(3-methoxyanilino)-1H-pyrrolo[3,2-c]pyridin-2-yl]-N,N-dimethyl-benzamide], the Emax fell in the range of 50 to 100%. As for `CNc1nc2cnc(Nc3cccc(F)c3)cc2n1-c1cc(OC)c(OC)c(OC)c1` [Compound 494, N6-(3-fluorophenyl)-N2-methyl-1-(3,4,5-trimethoxyphenyl)imidazo[4,5-c]pyridine-2,6-diamine], the figure is 30 to 50%; as for `COc1cccc(-c2nc3c(Nc4ccc(OC)c(OC)c4)nccc3[nH]2)c1` [Compound 369, N-(3,4-dimethoxyphenyl)-2-(3-methoxyphenyl)-1H-imidazo[4,5-c]pyridin-4-amine], above 100%; as for `COc1cc(Nc2nccc3[nH]c(-c4cccc(F)c4)nc23)cc(OC)c1OC` [Compound 402, 2-(3-fluorophenyl)-N-(3,4,5-trimethoxyphenyl)-1H-imidazo[4,5-c]pyridin-4-amine], 30 to 50%. As to `COc1ccc(-c2nc3c(Nc4cc(OC)c(OC)c(OC)c4)nccc3[nH]2)cc1` [Compound 389, 2-(4-methoxyphenyl)-N-(3,4,5-trimethoxyphenyl)-1H-imidazo[4,5-c]pyridin-4-amine], the Emax lay within 50 to 100%. With `c1ccc(Cn2cnc3c(NCc4ccc5c(c4)OCO5)nccc32)cc1` [Compound 454, N-(1,3-benzodioxol-5-ylmethyl)-1-benzyl-imidazo[4,5-c]pyridin-4-amine] the figure was 50 to 100%.

For `CN1CCN(c2cc3c(cn2)cc(-c2cnn(C)c2)n3Cc2ccccc2)CC1` [Compound 154, 1-benzyl-6-(4-methylpiperazin-1-yl)-2-(1-methylpyrazol-4-yl)pyrrolo[3,2-c]pyridine], the Emax lay in the range of 30 to 50%. As for `CNc1nc2cnc(Nc3ccc(C(=O)N(C)C)cc3)cc2n1-c1ccccc1` [Compound 515, N,N-dimethyl-4-[[2-(methylamino)-1-phenyl-imidazo[4,5-c]pyridin-6-yl]amino]benzamide], the figure is 50 to 100%; as for `CS(=O)(=O)c1ccc(Nc2cc3[nH]c(-c4cn[nH]c4)cc3cn2)cc1` [Compound 120, N-(4-methylsulfonylphenyl)-2-(1H-pyrazol-4-yl)-1H-pyrrolo[3,2-c]pyridin-6-amine], above 100%.

For `CNc1nc2cnc(Nc3ccc(OC)cc3)cc2n1CCOC` [Compound 496, 1-(2-methoxyethyl)-N6-(4-methoxyphenyl)-N2-methyl-imidazo[4,5-c]pyridine-2,6-diamine], the Emax lay in the range of 50 to 100%. As for `CC(=O)Nc1ccc(Nc2nccc3c2cc(-c2ccsc2)n3C)cc1` [Compound 270, N-[4-[[1-methyl-2-(3-thienyl)pyrrolo[3,2-c]pyridin-4-yl]amino]phenyl]acetamide], the Emax lay within 50 to 100%.

For the molecule `COc1ccc(Nc2cc3c(cn2)cc(-c2cccnc2)n3C)cc1` [Compound 91, N-(4-methoxyphenyl)-1-methyl-2-(3-pyridyl)pyrrolo[3,2-c]pyridin-6-amine], the Emax was in the range of 50 to 100%. `CNc1nc2cnc(Nc3ccc(N4CCN(C)CC4)cc3)cc2n1CC1CC1` [Compound 572, 1-(cyclopropylmethyl)-N2-methyl-N6-[4-(4-methylpiperazin-1-yl)phenyl]imidazo[4,5-c]pyridine-2,6-diamine]: the Emax lay in the range of 50 to 100%. As for `CC(=O)c1cccc(Nc2cc3c(cn2)nc(NCc2ccccc2)n3C)c1` [Compound 628, 1-[3-[[2-(benzylamino)-1-methyl-imidazo[4,5-c]pyridin-6-yl]amino]phenyl]ethanone], the figure is 30 to 50%. Regarding `COc1cc(Nc2nccc3[nH]c(-c4cccc(C)c4)nc23)cc(OC)c1OC` [Compound 435, 2-(m-tolyl)-N-(3,4,5-trimethoxyphenyl)-1H-imidazo[4,5-c]pyridin-4-amine], the Emax is 50 to 100%.

`FC(F)(F)Oc1cccc(-c2nc3c(N4CCOCC4)nccc3[nH]2)c1` [Compound 446, 4-[2-[3-(trifluoromethoxy)phenyl]-1H-imidazo[4,5-c]pyridin-4-yl]morpholine]: the Emax fell in the range of 30 to 50%. For the molecule `CN(C)C(=O)c1ccc(-c2cc3c(Nc4ccc(Oc5ccccc5)cc4)nccc3n2C)cc1` [Compound 217, N,N-dimethyl-4-[1-methyl-4-(4-phenoxyanilino)pyrrolo[3,2-c]pyridin-2-yl]benzamide], the Emax is 0 to 30%. Consider `COc1cccc(-c2nc3c(N4CCOCC4)nccc3[nH]2)c1` [Compound 375, 4-[2-(3-methoxyphenyl)-1H-imidazo[4,5-c]pyridin-4-yl]morpholine], for which the Emax was in the range of 30 to 50%.

In the case of `COc1ccc(Nc2cc3[nH]c(-c4cncn4C)cc3cn2)cc1OC` [Compound 102, N-(3,4-dimethoxyphenyl)-2-(3-methylimidazol-4-yl)-1H-pyrrolo[3,2-c]pyridin-6-amine], the Emax is above 100%. Consider `Cn1c(-c2cccnc2)cc2c(Nc3cccc(NS(C)(=O)=O)c3)nccc21` [Compound 244, N-[3-[[1-methyl-2-(3-pyridyl)pyrrolo[3,2-c]pyridin-4-yl]amino]phenyl]methanesulfonamide], for which the Emax is 50 to 100%.

For the molecule `CN(C)c1cccc(Nc2cc3c(cn2)cc(-c2cnn(C)c2)n3C)c1` [Compound 134, N1,N1-dimethyl-N3-[1-methyl-2-(1-methylpyrazol-4-yl)pyrrolo[3,2-c]pyridin-6-yl]benzene-1,3-diamine], the Emax is 50 to 100%.

`COc1ncccc1-c1cc2c(cn1)nc(NCC1CCCO1)n2C` (stereo not shown) [Compound 644, 6-(2-methoxy-3-pyridyl)-1-methyl-N-(tetrahydrofuran-2-ylmethyl)imidazo[4,5-c]pyridin-2-amine]: the Emax lay in the range of 50 to 100%.

With `CN(C)C(=O)c1ccc(-c2cc3c(Nc4cccc(OC(F)(F)F)c4)nccc3n2C)cc1` [Compound 222, N,N-dimethyl-4-[1-methyl-4-[3-(trifluoromethoxy)anilino]pyrrolo[3,2-c]pyridin-2-yl]benzamide], the Emax lay within 0 to 30%. For the molecule `COc1ccc(CNc2nc3cnc(Nc4ccc(F)cc4)cc3n2C)cc1OC` [Compound 607, N2-[(3,4-dimethoxyphenyl)methyl]-N6-(4-fluorophenyl)-1-methyl-imidazo[4,5-c]pyridine-2,6-diamine], the Emax lay in the range of 50 to 100%. As to `COc1cc(Nc2cc3[nH]c(-c4ccccn4)cc3cn2)cc(OC)c1OC` [Compound 62, 2-(2-pyridyl)-N-(3,4,5-trimethoxyphenyl)-1H-pyrrolo[3,2-c]pyridin-6-amine], the Emax is above 100%. In the case of `Fc1cccc(-c2cc3c(cn2)ncn3-c2ccccc2)c1` [Compound 733, 6-(3-fluorophenyl)-1-phenyl-imidazo[4,5-c]pyridine], the Emax lay in the range of 30 to 50%. With `COc1ccccc1-c1cc2c(Nc3ccc4c(c3)OCO4)nccc2[nH]1` [Compound 296, N-(1,3-benzodioxol-5-yl)-2-(2-methoxyphenyl)-1H-pyrrolo[3,2-c]pyridin-4-amine] the figure was 30 to 50%; with `c1cc2[nH]c(-c3ccsc3)cc2c(Nc2ccc3c(c2)OCCO3)n1` [Compound 252, N-(2,3-dihydro-1,4-benzodioxin-6-yl)-2-(3-thienyl)-1H-pyrrolo[3,2-c]pyridin-4-amine], 50 to 100%. In the case of `COc1cc(Nc2nccc3[nH]c(-c4ccc(C)cc4)nc23)cc(OC)c1OC` [Compound 377, 2-(p-tolyl)-N-(3,4,5-trimethoxyphenyl)-1H-imidazo[4,5-c]pyridin-4-amine], the Emax lay in the range of 30 to 50%. On to `CN(C)c1ccc(-c2cc3c(Nc4ccc(O)cc4)nccc3n2C)cc1` [Compound 226, 4-[[2-(4-dimethylaminophenyl)-1-methyl-pyrrolo[3,2-c]pyridin-4-yl]amino]phenol], for which the Emax fell in the range of 50 to 100%. For the molecule `CNc1nc2cnc(Nc3ccc(OC)c(OC)c3)cc2n1Cc1ccc(OC)c(OC)c1` [Compound 665, N6-(3,4-dimethoxyphenyl)-1-[(3,4-dimethoxyphenyl)methyl]-N2-methyl-imidazo[4,5-c]pyridine-2,6-diamine], the Emax lay in the range of 50 to 100%. Regarding `COc1cccc(-c2nc3c(Nc4cc(OC)c(OC)c(OC)c4)nccc3[nH]2)c1` [Compound 367, 2-(3-methoxyphenyl)-N-(3,4,5-trimethoxyphenyl)-1H-imidazo[4,5-c]pyridin-4-amine], the Emax lay within 30 to 50%. With `Fc1ccc(Nc2cc3[nH]c(-c4ccccc4)cc3cn2)cc1` [Compound 179, N-(4-fluorophenyl)-2-phenyl-1H-pyrrolo[3,2-c]pyridin-6-amine], the Emax is 30 to 50%. On to `c1cc2[nH]c(-c3ccsc3)cc2c(Nc2ccc3c(c2)OCO3)n1` [Compound 263, N-(1,3-benzodioxol-5-yl)-2-(3-thienyl)-1H-pyrrolo[3,2-c]pyridin-4-amine], for which the Emax fell in the range of 50 to 100%.

As to `FC(F)(F)c1cccc(Nc2cc3[nH]c(-c4ccccn4)cc3cn2)c1` [Compound 66, 2-(2-pyridyl)-N-[3-(trifluoromethyl)phenyl]-1H-pyrrolo[3,2-c]pyridin-6-amine], the Emax is 30 to 50%. As to `Cn1c(NCC2CCCO2)nc2cnc(Nc3cccc(OC(F)(F)F)c3)cc21` (stereo not shown) [Compound 755, 1-methyl-N2-(tetrahydrofuran-2-ylmethyl)-N6-[3-(trifluoromethoxy)phenyl]imidazo[4,5-c]pyridine-2,6-diamine], the Emax was in the range of 0 to 30%. With `COCCNc1nc2cnc(-c3ccccc3C)cc2n1C` [Compound 770, N-(2-methoxyethyl)-1-methyl-6-(o-tolyl)imidazo[4,5-c]pyridin-2-amine] the figure was 0 to 30%; with `CN(C)c1cccc(Nc2nccc3[nH]c(-c4ccncc4)nc23)c1` [Compound 426, N1,N1-dimethyl-N3-[2-(4-pyridyl)-1H-imidazo[4,5-c]pyridin-4-yl]benzene-1,3-diamine], 50 to 100%; with `Cc1cccc(CNc2nc3cnc(Nc4cccc(S(C)(=O)=O)c4)cc3n2C)c1` [Compound 584, 1-methyl-N6-(3-methylsulfonylphenyl)-N2-(m-tolylmethyl)imidazo[4,5-c]pyridine-2,6-diamine], 30 to 50%. In the case of `Clc1ccc(CNc2nccc3[nH]c(-c4ccncc4)nc23)cc1` [Compound 433, N-[(4-chlorophenyl)methyl]-2-(4-pyridyl)-1H-imidazo[4,5-c]pyridin-4-amine], the Emax is 30 to 50%.
